The text below walks through data of patent US6897306B2, “3-heterocyclylpropanohydroxamic acids” (Pfizer Products, Inc., priority 1999, dated 2005).

Where two headings read alike, the source gives them in different places. Where a SMILES comes first, the peptide text is derived from it. [ ]: non-standard residue; d: D form. The star is where a group is joined. Sta = CC(C)C[C@H](N)[C@@H](O)CC(=O)O; Isovaleryl = CC(C)CC(=O)*

One data set concerns PCP. The note with it: cited from earlier work.
Data set [1] can be described thus: Dynamic Vapour Sorption (moisture sorption). It is filed as physicochemical. Here is the method:
Melting points were determined using open glass capillary tubes and a Gallenkamp melting point apparatus and are uncorrected. Nuclear magnetic resonance (NMR) data were obtained using Varian Unity Inova-400, Varian Unity Inova-300 or Bruker AC300 spectrometers and are quoted in parts per million from tetramethylsilane. Mass spectral (MS) data were obtained on a Finnigan Mat. TSQ 7000 or a Fisons Instruments Trio 1000. The calculated and observed ions quoted refer to the isotopic composition of lowest mass. Infra red (1R) spectra were measured using a Nicolet Magna 550 Fourier transform infra-red spectrometer. Flash chromatography refers to column chromatography on silica gel (Kieselgel 60, 230-400 mesh, from E. Merck, Darmstadt. Kieselgel 60 F254 plates from E. Merck were used for TLC, and compounds were visualised using UV light, 5% aqueous potassium permanagate or Dragendorff's reagent (oversprayed with aqueous sodium nitrite). Thermal analyses by Differential Scanning Calorimetry (DSC) and ThermoGravimetric Analysis (TGA) were obtained using Perkin Elmer DSC7 and TGA7. Moisture sorption characteristics were recorded using Surface Measurement Systems Ltd. Automated Water Sorption Analyser DVS 1. Water content was determined on a Mitsubishi CA100 (Coulometric Karl Fisher Titrator). Powder X-ray diffraction (PXRD) pattern was determined using a Siemens D5000 powder X-ray diffractometer fitted with an automatic sample changer, a theta-theta goniometer, automatic beam divergence slits, a secondary monochromator and a scintillation counter. Other measurements were taken using standard equipment. Hexane refers to a mixture of hexanes (hplc grade) b.p. 65-70° C. Ether refers to diethyl ether. Acetic acid refers to glacial acetic acid. 1-Hydroxy-7-aza-1H-1,2,3-benzotriazole (HOAt), N-[(dimethylamino)-1H-1,2,3-triazolo[4,5-b]pyridin-1-ylmethylene]-N-methylmethaninium hexafluorophosphate N-oxide (HATU) and 7-azabenzotriazol-1-yloxytris(pyrrolidino)phosphonium hexafluorophosphate (PyAOP) were purchased from PerSeptive Biosystems U.K. Ltd. “DIPE” refers to diisopropyl ether. Reverse-phase silica gel for flash chromatography was obtained from Fluka (Fluka 100, C18, 40-63μ). Pentane refers to High Performance Liquid Chromatography (HPLC) grade n-pentane (b.pt.35-37° C.). Nomenclature has been allocated using a program available from IUPAC. Standard abbreviations are used throughout, e.g. “Me” is methyl, “Et” is ethyl, “Pr” is propyl, “Ph” is phenyl, etc. It was noticed that during certain repetitions of the methods disclosed in the Examples and Preparations that some racemisation appeared to have taken place. It was found in some cases that specific desired enantiomers can be separated from mixtures thereof by routine methods such as by differential crystallisation. • ^aHPLC autopurification performed using 2 columns—Phenomonex LUNA C8 150×21.2 mm, 10 μm and Phenomonex […] C18 150×21.2 mm, […], eluting with a gradient system of organic solvent [ammonium acetate (aq) 100 mM:acetonitrile (1:9)]:aqueous solvent [ammonium acetate (aq) 100 mM:acetonitrile (9:1)] • ^bHPLC autopurification performed using 2 columns—Phenomonex LUNA C8 150×21.2 mm, 10 μm and Phenomonex […] C18 150×21.2 mm, 5 μm, eluting with a gradient system of organic solvent (acetonitrile):aqueous solvent (0.1% aqueous trifluoroacetic acid)

In turn, `O=C(C[C@@H](CCCC1CCCCC1)c1nc(C(=O)NCc2ccccn2)no1)NO` [Example 10, 5-{(1R)-4-Cyclohexyl-1-[2-(hydroxyamino)-2-oxoethyl]butyl}-N-(2-pyridinylmethyl) -1,2,4-oxadiazole-3-carboxamide] showed a melting point of 128 to 130 °C.

`O[C@H](CS)[C@H](O)CS` (racemic) [Dithiothreitol]: the “PCP inhibition (in words)” value with PCP (literature reports) was “inhibitory at low concentrations”.

Take `CC(C)C[C@H](NC(=O)[C@@H](NC(=O)N[C@@H](Cc1ccccc1)C(=O)O)[C@@H]1CCN=C(N)N1)C(=O)N[C@H](C=O)Cc1ccccc1` [chymostatin]: the “PCP inhibition (in words)” value with PCP (literature reports) is reported as “relatively strong inhibitors”.

`[Zn+2]` [Zn^2+]: the “PCP inhibition (in words)” value in the data set with PCP (literature reports) was “inhibitory at low concentrations”.

`N=C(N)NCCC[C@H](N)C(=O)O` [arginine]: in the data set on PCP (literature reports), the “PCP inhibition (in words)” value was “inhibited”.

Turning to `NC(=O)c1noc([C@H](CCCC2CCCCC2)CC(=O)NO)n1` [Example 2(b), 5-{(1R)-4-Cyclohexyl-1-[2-(hydroxyamino)-2-oxoethyl]butyl}-1,2,4-oxadiazole-3-carboxamide Monohydrate], the “Dynamic Vapour Sorption” value in data set [1] (2% RH (30° C.)) was 4.84 % w/w; in data set [1] (20% RH (30° C.)) it was 5.17 % w/w; in data set [1] (below 1% RH (30° C.)), “significant dehydration”.

`[Cd+2]` [Cd^2+]: in the data set with PCP (literature reports), the “PCP inhibition (in words)” value is reported as “inhibitory at low concentrations”.

Consider `NCCCC[C@H](N)C(=O)O` [lysine], for which, in the data set on PCP (literature reports), the “PCP inhibition (in words)” value is “inhibited”.

On to Tris-HCl [Tris-HCl buffer], for which the “PCP inhibition (in words)” value in the data set with PCP (buffer concentration 0.2-0.5M) is “markedly inhibited activity”.

Take `[Cu+2]` [Cu^2+]: the “PCP inhibition (in words)” value with PCP (literature reports) is on record as “inhibitory at low concentrations”.

Consider `CC(C)CC(=O)N[C@H](C(=O)N[C@H](C(=O)N[C@@H](CC(C)C)[C@@H](O)CC(=O)N[C@@H](C)C(=O)N[C@@H](CC(C)C)[C@@H](O)CC(=O)O)C(C)C)C(C)C` [pepstatin A] (Isovaleryl-VV[Sta]A[Sta]-OH), for which the “PCP inhibition (in words)” value in the data set with PCP (literature reports) was “relatively strong inhibitors”.

With concanavalin A, the “PCP inhibition (in words)” value in the data set with PCP (literature reports) is reported as “inhibitory at low concentrations”.

As to `CCCCCCCCCCCCOS(=O)(=O)[O-].[Na+]` [SDS], the “PCP inhibition (in words)” value in the data set with PCP (literature reports) was “inhibitory at low concentrations”.

As to `NC(=O)c1noc([C@H](CCCC2CCCCC2)CC(=O)NO)n1` [Example 2(c), 5-{(1R)-4-Cyclohexyl-1-[2-(hydroxyamino)-2-oxoethyl]butyl}-1,2,4-oxadiazole-3-carboxamide (Anhydrous)], the “Dynamic Vapour Sorption” value came to 0.18 % w/w in data set [1] (15% RH (30° C.)) and 0.23 % w/w in data set [1] (30% RH (30° C.)). Moreover, the “Dynamic Vapour Sorption, hydration behaviour” value in data set [1] (60% RH (30° C.), converting to the monohydrate (XRD)) is “hydrates slowly”. In data set [1] (90% RH (30° C.)), the “Dynamic Vapour Sorption, equilibrium” value is 5.3 % w/w.

B1: ovostatin: protein reported to at least partially inhibit PCP activity (protein, UniProt P20740 37-1473, looked up)
Ovostatin: KEPEPQYVLMVPAVLQSDSPSQVCLQFFNLNQTISVRVVLEYDTINTTIFEKNTTTSNGLQCLNFMIPPVTSVSLAFISFTAKGTTFDLKERRSVMIWNMESFVFVQTDKPIYKPGQSVMFRVVALDFNFKPVQEMYPLIAVQDPQNNRIFQWQNVTSEINIVQIEFPLTEEPILGNYKIIVTKKSGERTSHSFLVEEYVLPKFDVTVTAPGSLTVMDSELTVKICAVYTYGQPVEGKVQLSVCRDFDSYGRCKKSPVCQSFTKDLDTDGCLSHILSSKVFELNRIGYKRNLDVKAIVTEKEQVCNLTATQSISITQVMSSLQFENVDHHYRRGIPYFGQIKLVDKDNSPISNKVIQLFVNNKNTHNFTTDINGIAPFSIDTSKIFDPELSLKALYKTSDQCHSEGWIEPSYPDASLSVQRLYSWTSSFVRIEPLWKDMSCGQKRMITVYYILNTEGYEHINIVNFYYVGMAKGKIVLTGEIKVNIQADQNGTFMIPLVVNEKMAPALRLLVYMLHPAKELVADSVRFSIEKCFKNKVQLQFSEKQMLTTSNVSLVIEAAANSFCAVRAVDKSMLLLKSETELSAETIYNLHPIQDLQGYIFNGLNLEDDPQDPCVSSDDIFHKGLYYRPLTSGLGPDVYQFLRDMGMKFFTNSKIRQPTVCTRETVRPPSYFLNAGFTASTHHVKLSAEVAREERGKRHILETIREFFPETWIWDIILINSTGKASVSYTIPDTITEWKASAFCVEELAGFGMSVPATLTAFQPFFVDLTLPYSIIHGEDFLVRANVFNYLNHCIKINVLLLESLDYQAKLISPEDDGCVCAKIRKSYVWNIFPKGTGDVLFSITAETNDDEACEEEALRNIRIDYRDTQIRALLVEPEGIRREETQNFLICMKDDVISQDVAIDLPTNVVEGSPRPSFSVVGDIMGTAIQNVHQLLQMPFGNGEQNMVLFAPNIYVLDYLDKTRQLSEDVKSKTIGYLVSGYQKQLSYKHPDGSYSTFGIRDKEGNTWLTAFVYKSFAEASRFIYIDDNVQAQTLIWLATKQKTDGCFQSTGILVNNAMKGGVENELSLSAYITIALLEAGHSMSHTVIRNAFYCLETASEKNITDIYTQALVAYAFCLAGKAEICESFLRELQKSAKEVDGSKYWEQNQRSAPEKSHLLDHVQSTDVEITSYVLLALLYKPNRSQEDLTKASAIVQWIIRQQNSYGGFASMQDTVVALQALAAYGAATYNSVTQNVIKINSKNTFEKVFTVNNENRLLLQQTPLPQVPGKYSLTVNGTGCVLIQTALRYNIHLPEGAFGFSLSVQTSNASCPRDQPGKFDIVLISSYTGKRSSSNMVIIDVKMLSGFVPVKSSLDQLIDDHTVMQVEYKKNHVLLYLGNILQKRRKEVTFSVEQDFVVTHPKPAPVQIYDYYETEEYAVAEYMSLCRGVVEEMG
For the molecule B1, the “PCP inhibition (in words)” value with PCP (literature reports) was “at least partially inhibit”.

B2: α2-Macroglobuline: protein reported to at least partially inhibit PCP activity (protein, UniProt P01023 24-1474, looked up)
Alpha-2-macroglobulin: SVSGKPQYMVLVPSLLHTETTEKGCVLLSYLNETVTVSASLESVRGNRSLFTDLEAENDVLHCVAFAVPKSSSNEEVMFLTVQVKGPTQEFKKRTTVMVKNEDSLVFVQTDKSIYKPGQTVKFRVVSMDENFHPLNELIPLVYIQDPKGNRIAQWQSFQLEGGLKQFSFPLSSEPFQGSYKVVVQKKSGGRTEHPFTVEEFVLPKFEVQVTVPKIITILEEEMNVSVCGLYTYGKPVPGHVTVSICRKYSDASDCHGEDSQAFCEKFSGQLNSHGCFYQQVKTKVFQLKRKEYEMKLHTEAQIQEEGTVVELTGRQSSEITRTITKLSFVKVDSHFRQGIPFFGQVRLVDGKGVPIPNKVIFIRGNEANYYSNATTDEHGLVQFSINTTNVMGTSLTVRVNYKDRSPCYGYQWVSEEHEEAHHTAYLVFSPSKSFVHLEPMSHELPCGHTQTVQAHYILNGGTLLGLKKLSFYYLIMAKGGIVRTGTHGLLVKQEDMKGHFSISIPVKSDIAPVARLLIYAVLPTGDVIGDSAKYDVENCLANKVDLSFSPSQSLPASHAHLRVTAAPQSVCALRAVDQSVLLMKPDAELSASSVYNLLPEKDLTGFPGPLNDQDNEDCINRHNVYINGITYTPVSSTNEKDMYSFLEDMGLKAFTNSKIRKPKMCPQLQQYEMHGPEGLRVGFYESDVMGRGHARLVHVEEPHTETVRKYFPETWIWDLVVVNSAGVAEVGVTVPDTITEWKAGAFCLSEDAGLGISSTASLRAFQPFFVELTMPYSVIRGEAFTLKATVLNYLPKCIRVSVQLEASPAFLAVPVEKEQAPHCICANGRQTVSWAVTPKSLGNVNFTVSAEALESQELCGTEVPSVPEHGRKDTVIKPLLVEPEGLEKETTFNSLLCPSGGEVSEELSLKLPPNVVEESARASVSVLGDILGSAMQNTQNLLQMPYGCGEQNMVLFAPNIYVLDYLNETQQLTPEIKSKAIGYLNTGYQRQLNYKHYDGSYSTFGERYGRNQGNTWLTAFVLKTFAQARAYIFIDEAHITQALIWLSQRQKDNGCFRSSGSLLNNAIKGGVEDEVTLSAYITIALLEIPLTVTHPVVRNALFCLESAWKTAQEGDHGSHVYTKALLAYAFALAGNQDKRKEVLKSLNEEAVKKDNSVHWERPQKPKAPVGHFYEPQAPSAEVEMTSYVLLAYLTAQPAPTSEDLTSATNIVKWITKQQNAQGGFSSTQDTVVALHALSKYGAATFTRTGKAAQVTIQSSGTFSSKFQVDNNNRLLLQQVSLPELPGEYSMKVTGEGCVYLQTSLKYNILPEKEEFPFALGVQTLPQTCDEPKAHTSFQISLSVSYTGSRSASNMAIVDVKMVSGFIPLKPTVKMLERSNHVSRTEVSSNHVLIYLDKVSNQTLSLFFTVLQDVPVRDLKPAIVKVYDYYETDEFAIAEYNAPCSKDLGNA
As to B2, the “PCP inhibition (in words)” value in the data set with PCP (literature reports) was “at least partially inhibit”.
